Entries after “also recorded” stand apart in the source; their conditions may differ.
Legend:
[1] = assay type: physicochemical
Description: Naphthalene is insoluble in water. […] Accordingly, ND, the metabolized product of naphthalene (see FIG. 1), rather than naphthalene, was used to test the cytotoxic activity of the drug that is activated AR overproduced by HepG2 cells.

[2] = rabbit cataract model; taken as the likely toxic level for oral administration; cited from earlier work
[3] = system: HepG2 cells; assay: LDH-release cytotoxicity assay in HepG2 cells cultured in isotonic or hypertonic (AR-inducing) medium; assay type: cell-based, human; conditions: for effect on HepG2 cells (LDH release): 50 μM ND; for toxic effect (LDH released into the medium): 5 hours
Procedure: HepG2 cells, a human liver cell line, were purchased from the American Type Culture Collection (Rockville, Md.). The basic (isotonic) medium was MEM medium supplemented with 10% fetal bovine serum, 100 U/ml penicillin, 100 μg/ml streptomycin, 0.1 mM MEM non-essential amino acids, and 1 mM sodium pyruvate. Medium was made hypertonic by adding NaCl to 100 mM, and the osmolarity was about 500 mosmol/kg as determined by osmometer. ND was dissolved in 20% ethanol to make a 50 mM stock solution. NQ was dissolved in 100% ethanol to make a 50 mM stock solution. AL1576 was dissolved in 20 mM NaOH to make a 20 mM stock solution.
Cells were first cultured in isotonic medium until 70% confluent. The medium was then made hypertonic by NaCl and incubated for 72 hours. The cells were then seeded onto 24-well plate at 8×10^4 cells/well and incubated for 24 hours in hypertonic medium. Cells for isotonic control were processed in parallel except that no NaCl was added. ND and AR inhibitor AL1576 were added as indicated.
Cytotoxicity was measured by the percent of LDH (lactate dehydrogenase) released into the medium. LDH activity was determined by Cytotoxicity Detection Kit. The optical density of the colored product was measured at 492 and 690 nm by SpectraMax 340 Microplate reader (Molecular Devices). LDH released into the medium was measured by taking samples of the medium. Total LDH was determined by taking samples of cell extracts lysed by Triton X-100 at a final concentration of 1%.

For c1ccc2ccccc2c1 [Naphthalene], the “behaviour when added to the medium” value [1] is listed as “quickly precipitates”, the solubility in water [1] is listed as “insoluble” and the “dose at which cataract and degeneration of the retina develop” value [2] is listed as “about 1 g/kg body weight”.

With OC1C=Cc2ccccc2C1O (stereo not shown) [ND, naphthalene-1,2-dihydrodiol] the “effect on HepG2 cells (LDH release)” value ([3]; hypertonic medium) was “no effect”, the “effect on HepG2 cells (LDH release)” value ([3]; isotonic medium) was “no effect” and the “toxic effect (LDH released into the medium)” value ([3]; 500 μM ND, HepG2 cells in hypertonic medium (AR overexpressed)) was “highly toxic”. The “toxic effect (LDH released into the medium)” value ([3]; 500 μM ND, HepG2 cells in isotonic medium) was “no sign of toxic effects; also recorded: no toxic effect”, the “LDH released relative to that released by control cells (isotonic medium)” value ([3]; 500 μM ND, hypertonic versus isotonic medium) was “more than 10 times” and the “sensitivity of HepG2 cells to ND in hypertonic versus isotonic medium” value ([3]; hypertonic versus isotonic medium) was 10 times.

For O=C1NC(=O)C2(N1)c1cc(F)ccc1-c1ccc(F)cc12 [AL1576, 2,7-difluorospirofluorene-9,5′-imidazolidine-2′4′-dione, reference compound], the “protection of HepG2 cells against the toxic effects of ND by the AR inhibitor” value ([3]; HepG2 cells in hypertonic medium with ND) was “can protect these cells against the toxic effects of ND”.
